# Measured values: US11173162B2, “Bicyclic heterocycles as FGFR4 inhibitors” (Incyte Corporation, priority 2015, dated 2021)
# System: FGFR3 enzyme
# Test: FGFR Enzymatic Assay (FRET peptide phosphorylation), FGFR3
# Assay type: biochemical
# Conditions: IC50 ratio showing FGFR3 selectivity; Table 2A, pre-incubated for 4 hours
# Experimental: The inhibitor potency of the exemplified compounds was measured in an enzyme assay that measures peptide phosphorylation using FRET measurements to detect product formation. Inhibitors were serially diluted in DMSO and a volume of 0.5 μL was transferred to the wells of a 384-well plate.
# GraphPad prism3 was used to analyze the data.
SMILES,FGFR1/FGFR3,FGFR4/FGFR3
"COc1cc(OC)c(F)c(N2Cc3cnc(-c4cn(CCCN5CCOCC5)nc4C)cc3C3(CC3)C2=O)c1F [Example 146, 2′-(2,6-difluoro-3,5-dimethoxyphenyl)-6′-(3-methyl-1-(3-morpholinopropyl)-1H-pyrazol-4-yl)-1′H-spiro[cyclopropane-1,4′-[2,7]naphthyridin]-3′(2′H)-one]",>10,>5
"COc1cc(OC)c(F)c(N2Cc3cnc(-c4cn(C)nc4C)cc3N(c3ccc4ncsc4c3)C2=O)c1F [Example 41, 1-(1,3-benzothiazol-6-yl)-3-(2,6-difluoro-3,5-dimethoxyphenyl)-7-(1,3-dimethyl-1H-pyrazol-4-yl)-3,4-dihydropyrido[4,3-d]pyrimidin-2(1H)-one]",>1,>5
"COc1cc(OC)c(F)c(N2Cc3cnc(-c4cn(C)nc4C)cc3N(Cc3ccc(F)c(F)c3)C2=O)c1F [Example 73, 3-(2,6-difluoro-3,5-dimethoxyphenyl)-1-(3,4-difluorobenzyl)-7-(1,3-dimethyl-1H-pyrazol-4-yl)-3,4-dihydropyrido[4,3-d]pyrimidin-2(1H)-one]",>5,>10
"COc1cc(OC)c(F)c(N2Cc3cnc(-c4cnn(CCC5CCN(S(C)(=O)=O)CC5)c4)cc3C3(CC3)C2=O)c1F [Example 148, 2′-(2,6-difluoro-3,5-dimethoxyphenyl)-6′-(1-(2-(1-(methylsulfonyl)piperidin-4-yl)ethyl)-1H-pyrazol-4-yl)-1′H-spiro[cyclopropane-1,4′-[2,7]naphthyridin]-3′(2′H)-one]",>10,>3
"COc1cc(OC)c(F)c(N2Cc3cnc(-c4cn(C)nc4C)cc3N(c3ccc(F)c(F)c3)C2=O)c1F [Example 102, 3-(2,6-difluoro-3,5-dimethoxyphenyl)-1-(3,4-difluorophenyl)-7-(1,3-dimethyl-1H-pyrazol-4-yl)-3,4-dihydropyrido[4,3-d]pyrimidin-2(1H)-one]",>3,>10
"CCn1cnc(-c2cc3c(cn2)CN(c2c(F)c(OC)cc(OC)c2F)C(=O)C32CC2)c1 [Example 53, 2′-(2,6-difluoro-3,5-dimethoxyphenyl)-6′-(1-ethyl-1H-imidazol-4-yl)-1′H-spiro[cyclopropane-1,4′-[2,7]naphthyridin]-3′(2′H)-one]",>5,>5
"COc1cc(OC)c(F)c(N2Cc3cnc(-c4ccncc4)cc3C3(CC3)C2=O)c1F [Example 185, 2′-(2,6-difluoro-3,5-dimethoxyphenyl)-6′-(pyridin-4-yl)-1′H-spiro[cyclopropane-1,4′-[2,7]naphthyridin]-3′(2′H)-one]",>3,>3
"COc1cc(OC)c(F)c(N2Cc3cnc(-c4cn(C)nc4C)cc3N(C3CCN(C(C)=O)CC3)C2=O)c1F [Example 43, 1-(1-acetylpiperidin-4-yl)-3-(2,6-difluoro-3,5-dimethoxyphenyl)-7-(1,3-dimethyl-1H-pyrazol-4-yl)-3,4-dihydropyrido[4,3-d]pyrimidin-2(1H)-one]",>10,>5
"CCN1C(=O)N(c2c(F)c(OC)cc(OC)c2F)Cc2cnc(-c3ccc(C(N)=O)nc3)cc21 [Example 184, 5-(3-(2,6-difluoro-3,5-dimethoxyphenyl)-1-ethyl-2-oxo-1,2,3,4-tetrahydropyrido[4,3-d]pyrimidin-7-yl)picolinamide]",>5,>5
"COc1cc(OC)c(F)c(N2Cc3cnc(-c4ccc(C#N)nc4)cc3C3(CC3)C2=O)c1F [Example 20, 5-(2′-(2,6-difluoro-3,5-dimethoxyphenyl)-3′-oxo-2′,3′-dihydro-1′H-spiro[cyclopropane-1,4′-[2,7]naphthyridine]-6′-yl)picolinonitrile]",>5,–
"COc1cc(OC)c(F)c(N2Cc3cnc(-c4cn(C)nc4C)cc3N(C3(C#N)CC3)C2=O)c1F [Example 91, 1-(3-(2,6-difluoro-3,5-dimethoxyphenyl)-7-(1,3-dimethyl-1H-pyrazol-4-yl)-2-oxo-3,4-dihydropyrido[4,3-d]pyrimidin-1(2H)-yl)cyclopropanecarbonitrile]",>5,>5
"CCn1cc(N2C(=O)N(c3c(F)c(OC)cc(OC)c3F)Cc3cnc(-c4cn(C)nc4C)cc32)cn1 [Example 131, 3-(2,6-difluoro-3,5-dimethoxyphenyl)-7-(1,3-dimethyl-1H-pyrazol-4-yl)-1-(1-ethyl-1H-pyrazol-4-yl)-3,4-dihydropyrido[4,3-d]pyrimidin-2(1H)-one]",>3,>10
"CCN1C(=O)N(c2c(F)c(OC)cc(OC)c2F)Cc2cnc(-c3ccc(C(=O)NC4CC4)nc3)cc21 [Example 176, N-cyclopropyl-5-(3-(2,6-difluoro-3,5-dimethoxyphenyl)-1-ethyl-2-oxo-1,2,3,4-tetrahydropyrido[4,3-d]pyrimidin-7-yl)picolinamide]",>10,>5
"COc1cc(OC)c(F)c(N2Cc3cnc(-c4ccccc4)cc3C3(CC3)C2=O)c1F [Example 17, 2′-(2,6-difluoro-3,5-dimethoxyphenyl)-6′-phenyl-1′H-spiro[cyclopropane-1,4′-[2,7]naphthyridin]-3′(2′H)-one]",>10,–
"COc1cc(OC)c(F)c(N2Cc3cnc(-c4cn(CCN(C)C)nc4C)cc3C3(CC3)C2=O)c1F [Example 164, 2′-(2,6-difluoro-3,5-dimethoxyphenyl)-6′-(1-(2-(dimethylamino)ethyl)-3-methyl-1H-pyrazol-4-yl)-1′H-spiro[cyclopropane-1,4′-[2,7]naphthyridin]-3′(2′H)-one]",>3,>3
"CNC(=O)c1ccc(-c2cc3c(cn2)CN(c2c(F)c(OC)cc(OC)c2F)C(=O)C32CC2)cc1 [Example 19, 4-(2′-(2,6-difluoro-3,5-dimethoxyphenyl)-3′-oxo-2′,3′-dihydro-1′H-spiro[cyclopropane-1,4′-[2,7]naphthyridine]-6′-yl)-N-methylbenzamide]",>5,–
"COc1cc(OC)c(F)c(N2Cc3cnc(-c4cnn(CCN5CCOCC5)c4)cc3C3(CC3)C2=O)c1F [Example 157, 2′-(2,6-difluoro-3,5-dimethoxyphenyl)-6′-(1-(2-morpholinoethyl)-1H-pyrazol-4-yl)-1′H-spiro[cyclopropane-1,4′-[2,7]naphthyridin]-3′(2′H)-one]",>5,>3
"COc1cc(OC)c(F)c(N2Cc3cnc(-c4cn(C)nc4C)cc3N(Cc3csc(C)n3)C2=O)c1F [Example 95, 3-(2,6-difluoro-3,5-dimethoxyphenyl)-7-(1,3-dimethyl-1H-pyrazol-4-yl)-1-((2-methylthiazol-4-yl)methyl)-3,4-dihydropyrido[4,3-d]pyrimidin-2(1H)-one]",>5,>10
"CCN1C(=O)N(c2c(F)c(OC)cc(OC)c2F)Cc2cnc(-c3cccnc3)cc21 [Example 23, 3-(2,6-difluoro-3,5-dimethoxyphenyl)-1-ethyl-7-(pyridin-3-yl)-3,4-dihydropyrido[4,3-d]pyrimidin-2(1H)-one]",>5,–
